Measurements reported in US20100216875A1, “METHODS OF TREATING ALZHEIMER'S DISEASE” (priority 2006, published 2010).

Tests used:
[1] = test system: brain and synaptosomal Aβ; experiment: guinea pig brain and synaptosome Aβ by ELISA after icv infusion; format: in vivo; conditions: icv 0.15 mg/kg/day
Description: Guinea pig (gp) is a natural, non-transgenic model of human APP processing gpAPP is 98% homologous to human APP, contains the human wild-type β-secretase site, and gpAβ is identical to human Aβ. Brain synaptosome preparations are enriched with neuronal synapses which are the sites at which regulated secretion occurs and are an in vivo measure of regulated secretory secretion CTFβ is an APP fragment that results from p-secretase cleavage of APP and reflects in vivo β-secretase activity. […] E64d was icy administered into gp brains (0.15 mg/kg/day) for 7 or 30 days. […] In FIG. 5b, total synaptosomal Aβ is shown.
CA074Me (0.15 mg/kg/day) was icy infused into gp brains with mini pumps. […] An equal reduction of Aβ40 and Aβ42 is consistent with the inhibitor affecting p-secretase activity
At the end of the treatment, the brains were isolated and extracted with guanidine hydrochloride and Aβ40 and Aβ42 levels were determined using ELISA.
Cathepsin B inhibitors were administered directly into the brain by icy infusion with minipumps in time course studies at different doses. Guinea pigs were infused with compounds using Alzet pumps (2.5 μl/hr, with compounds at 1 mg/ml in saline) for 7 and 30 days, and other times. This initial dose of compound was selected because E64d and CA074Me are effective at this dose. Each treatment group consisted of eight to ten guinea pigs, including the vehicle control group.
At the end of each experiment, animals were sacrificed and half the brain was taken for ELISA measurement of Aβ40 and Aβ42 levels. The other half was isolated for synaptosome preparations for ELISA measurement of Aβ40 and Aβ42 content in nerve terminals. Synaptosomes were prepared by homogenization in isotonic sucrose (320 mM), pH 7.4, 1 mM EDTA, 0.25 mM dithiothreitol, and 30 U/MI RNAse inhibitor. The homogenate was centrifuged at 1000×g for 10 minutes. The supernatant was loaded on a Sucrose-Percoll discontinuous gradient and centrifuged at 32,000×g for 5 minutes (80) Enriched synaptosomes were washed in PBS, and centrifuged at 12,000×g for 4 minutes. The supernatant was removed, and the synaptosome containing pellet was resuspended in 50% OptiPrep (Accurate Chemica. Westbury, N.Y.), loaded on an OptiPrep discontinuous flotation gradient (9, 12.5, 25, and 35%) and centrifuged at 10,000×g for 20 minutes. The synaptosomes were obtained at the […]
For quantitative analysis of Aβ peptides, an enzyme-linked immunosorbent assay (ELISA) was used to measure the levels of total Aβ, Aβtotal, Aβ40 and Aβ42 in the brains and synaptosomes of guinea pigs (Biosource International, Camarillo, Calif.) Aβtotal, Aβ40, Aβ42 was extracted from guinea pig brains or from synaptosomes by guanidine hydrochloride and quantified as described by the manufacturer. This assay extracted the total Aβ peptide from the brain (both soluble and aggregated). Tissue samples were homogenized in 5M guanidine buffer (5M guanidine HCl in 50 mM Tris-Cl, pH 8.3; Sigma-Aldrich, St. Louis, Mo.) at 1:10 w/v dilution. Homogenates were agitated at room temperature for 3-4 hours, then stored at −20° C. The day before running the ELISA, the tissue samples were diluted further 1:10 to provide a final guanidine concentration of 0.5M. These diluted homogenates were spun down at 14,000 rpm for 20 minutes at 4° C. and supernatants used for Aβ determination by ELISA (84-86). Brain and synaptosome extracts were assayed as diluted in 0.5M guanidine. In addition, Aβ40 and Aβ42 were assayed using ELISA using 6E10 as the capture antibody and Rb209 and Rb321 as reporter antibodies, respectively, for Aβ40 and Aβ42 (96).

[2] = test system: transgenic APPIn mice (London mutant human APP); experiment: Morris water maze test in transgenic APPIn mice; format: in vivo, mouse; conditions: icv 0.015 mg/kg/day, 28 days, p<0.005
Protocol: Transgenic mice expressing human APP containing the London mutation (APPIn) mimic AD function and pathology in that they are cognitively deficient, have brain amyloid plaque and elevated Aβ (8). […] CA074Me or E64d were administered by icy infusion in brains (0.015 mg/kg/day) for 28 days (8 animals per treatment group).
Thus, irreversible cathepsin B inhibitors are efficacious in this AD animal model, causing an 80% improvement in cognitive function and a 50% decrease in amyloid plaque load and brain Aβ. Thus, these tests indicate that Cathepsin B inhibitors are effective at reversing the cognitive deficit caused by AD
(§1) The status of memory impairment in the APPIn or APPswe/In mice with and without administration of select compounds was assessed by the Morris water maze test. The water maze test is widely used in mouse AD animal models to evaluate cognitive impairment in such AD models. Water maze tests were conducted as previously described (87-89).
Drug-treated and vehicle-treated mice were tested in the Morris water maze test. Mice were trained in a 1.2 meter open field water maze. The pool was filled to a depth of 30 cm with water and maintained at 25° C. The escape platform (10 cm square) was placed 1 cm below the surface of the water. During the trials, the platform was removed from the pool. […] These trials were not recorded since they were for training purposes only. […]

APPswe/In mice = experiment: Morris water maze test in APPswe/In mice; format: in vivo, mouse; conditions: Mean + % SEM; for Latency Period: same treatment as APPIn mice
Protocol: Cathepsin B inhibitors were also evaluated in another transgenic mouse that expressed human APP containing both the Swedish mutant β-secretase and the London γ-secretase site (APPswe/In).
as §1
Drug-treated and vehicle-treated mice were tested in the Morris water maze test. Mice were trained in a 1.2 meter open field water maze. The pool was filled to a depth of 30 cm with water and maintained at 25° C. The escape platform (10 cm square) was placed 1 cm below the surface of the water. During the trials, the platform was removed from the pool. The cued test was carried out in the pool surrounded with white curtains to hide any extra-maze cues. Aβ animals underwent non-spatial pretraining (NSP) for three consecutive days. These trials were to prepare the animals for the final behavioral test to determine whether there was sufficient retention of memory to find the platform. These trials were not recorded since they were for training purposes only. For the training and learning studies, the curtains were removed to extra maze cues to allow identification of animals with swimming impairments. On day 1, the mice were placed on the hidden platform for 20 seconds (trial 1), for trials 2-3 animals were released in the water at a distance of 10 cm from the cued-platform or hidden platform (trial 4) and allowed to swim to the platform. On the second day of trails, the hidden platform was moved randomly between the center of the pool and the center of each quadrant. The animals were released into the pool, randomly facing the wall and were allowed 60 seconds to reach the platform (3 trials). In the third trial, animals were given three trials, two with a hidden platform and one with a cued platform. Two days following the NSP, the animals were subjected to final behavioral trials (Morris water maze test). For these trials (3 per animal), the platform was placed in the center of one quadrant of the pool and the animals were released facing the wall in a random fashion. Each animal was allowed to find the platform or swim for 60 seconds (latency period, the time it takes to find the platform). Aβ animals were tested within 4-6 hours of dosing and were randomly selected for testing by an operator blinded to the test group.

| Structure (SMILES) | reduction of total Aβ in brain extracts ([1]; 7 days) | reduction of total synaptosomal Aβ ([1]; 7 days) | reduction of total Aβ in brain extracts ([1]; 30 days) | reduction of total synaptosomal Aβ ([1]; 30 days) | reduction of brain Aβ ([1]; duration not stated) | average latency period (Morris water maze) vs control [2] | Distance Traveled (APPswe/In mice) | Latency Period (APPswe/In mice) | reduction of Aβ40 in brain extracts ([1]; 7 days) | reduction of Aβ42 in brain extracts ([1]; 7 days) | reduction of Aβ40 in brain extracts ([1]; 30 days) | reduction of Aβ42 in brain extracts ([1]; 30 days) | reduction of Aβ40 in the brain ([1]; duration not stated) | reduction of Aβ42 in the brain ([1]; duration not stated) |
| --- | --- | --- | --- | --- | --- | --- | --- | --- | --- | --- | --- | --- | --- | --- |
| CCOC(=O)[C@H]1O[C@@H]1C(=O)N[C@@H](CC(C)C)C(=O)NCCC(C)C [E64d] | 30% | 27% | 50% | 50% | 50% | significantly lower average latency period | 270 + 12% | 40 + 10% |  |  |  |  |  |  |
| CCCNC(=O)[C@H]1O[C@@H]1C(=O)N[C@H](C(=O)N1CCC[C@H]1C(=O)OC)[C@@H](C)CC [CA074Me] | 50% | 45% | 60% | 50% |  | significantly lower average latency period | 246 + 13% | 37 + 12% | 50% | 50% | 50% | 50% | 50-60% | 50-60% |
